Test results taken from ChEMBL document CHEMBL5214970, “Discovery and optimization of orally bioavailable and potent plasma Kallikrein inhibitors bearing a quaternary carbon” (Bioorg Med Chem, 2022).

Tests used:
[1] = Cmin in Sprague-Dawley rat at 10 mg/kg,po measured after 24 hrs; assay type: ADME, organism-based; details: in vivo; for concentration at 24 h: Sprague-Dawley, read-out: Cmin
[2] = AUC (0 to 24hrs) in Sprague-Dawley rat at 10 mg/kg,po; assay type: ADME, organism-based; set-up: time < 24 hr, dose 10 mg/kg, route po; details: in vivo; for AUC(0-t) at 24 h: Sprague-Dawley
[3] = Cmax in Sprague-Dawley rat at 10 mg/kg,po; assay type: ADME, organism-based; set-up: dose 10 mg/kg, route po; details: in vivo
Plasma kallikrein [4] = molecular target: T1, Plasma kallikrein (Homo sapiens, UniProt P03952); experiment: Inhibition of endogenous human plasma kallikrein using Z-Phe-Arg-AMC.HCl as substrate measured after 5 mins by microplate reader analysis
T1 sequence (P03952 20-390 limits assumed): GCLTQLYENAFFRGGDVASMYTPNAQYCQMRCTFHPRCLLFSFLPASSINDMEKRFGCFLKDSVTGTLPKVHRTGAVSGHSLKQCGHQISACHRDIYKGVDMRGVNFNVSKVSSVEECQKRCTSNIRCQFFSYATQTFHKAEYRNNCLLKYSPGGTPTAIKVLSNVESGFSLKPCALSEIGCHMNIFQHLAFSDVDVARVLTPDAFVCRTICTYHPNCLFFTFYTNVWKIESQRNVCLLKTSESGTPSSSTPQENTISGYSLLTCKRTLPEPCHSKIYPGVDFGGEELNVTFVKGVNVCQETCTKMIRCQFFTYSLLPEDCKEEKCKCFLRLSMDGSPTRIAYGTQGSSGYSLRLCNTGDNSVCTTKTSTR
T1 sequence (P03952 391-638 limits assumed): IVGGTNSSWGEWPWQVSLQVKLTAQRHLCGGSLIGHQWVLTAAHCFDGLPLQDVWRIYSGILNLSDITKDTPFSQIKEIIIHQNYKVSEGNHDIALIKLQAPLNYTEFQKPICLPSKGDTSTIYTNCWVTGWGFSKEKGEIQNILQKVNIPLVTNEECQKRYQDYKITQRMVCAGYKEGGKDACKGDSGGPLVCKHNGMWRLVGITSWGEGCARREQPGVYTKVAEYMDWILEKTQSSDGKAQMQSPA

Plasma kallikrein [5] = molecular target: T1, Plasma kallikrein; experiment: Inhibition of purified human plasma kallikrein using H-D-Pro-Phe-Arg-pNA.2HCl as substrate measured after 3 mins by microplate reader analysis

Row | SMILES | concentration at 24 h [1] [ng/mL] | AUC(0-t) at 24 h [2] [ng·h/mL] | Cmax ([3]; Sprague-Dawley, read-out: Cmax) [ng/mL] | IC50 (Plasma kallikrein [4]) [nM] | IC50 (Plasma kallikrein [5]) [nM] | Cmin ([1]; po, 10 mg/kg, 24 h) [ng/mL] | AUC ([2]; 24 h) [ng·h/mL] | Cmax [3] [ng/mL]
1 | NCc1cccc(-n2nc(C(F)(F)F)cc2C(=O)Nc2cc(C(O)(CCC3CC3)c3cccnc3)ccc2F)c1 (stereo in doubt; 20) | 13 | 1440 | 383 |  |  |  |  | 
2 | NCc1cccc(-n2nc(C(F)(F)F)cc2C(=O)Nc2cccc(C(O)(CCC3CC3)c3cccnc3)c2)c1 (stereo in doubt; 8) |  |  |  | 23 | 5.7 |  |  | 
3 | NCc1cccc(-n2nc(C(F)(F)F)cc2C(=O)Nc2cccc(C(O)(CCC3CC3)c3ccccc3)c2)c1 (stereo in doubt; 6) |  |  |  | 191 | 14 |  |  | 
4 | NCc1cccc(-n2nc(C(F)(F)F)cc2C(=O)Nc2cccc(C(O)(CCC3CC3)c3ccncc3)c2)c1 (stereo in doubt; 9) |  |  |  | 17 | 4.7 |  |  | 
5 | NCc1cccc(-n2nc(C(F)(F)F)cc2C(=O)Nc2cccc(C(CCC3CC3)c3ccccc3)c2)c1 (stereo unspecified) |  |  |  | 2030 | 10.4 |  |  | 
6 | NCc1cccc(-n2nc(C(F)(F)F)cc2C(=O)Nc2cccc(C(O)(CCC3CC3)c3cccnc3)c2)c1 (stereo in doubt; 19) |  |  |  | 264 | 59 |  |  | 
7 | NCc1cccc(-n2nc(C(F)(F)F)cc2C(=O)Nc2cccc(C(O)(CCC3CC3)c3ccccc3)c2)c1 (stereo in doubt; 10) |  |  |  | 56 | 1.2 |  |  | 
8 | NCc1cccc(-n2nc(C(F)(F)F)cc2C(=O)Nc2cccc(C(O)(CCC3CC3)c3ccccc3)c2)c1 (stereo in doubt; 11) |  |  |  | 1190 | 62 |  |  | 
9 | NCc1cccc(-n2nc(C(F)(F)F)cc2C(=O)Nc2cccc(C(O)(CCC3CC3)c3ccncc3)c2)c1 (stereo in doubt; 23) |  | 11 | 7 | 7.6 | 1.3 |  |  | 
10 | NCc1cccc(-n2nc(C(F)(F)F)cc2C(=O)Nc2cccc(C(O)(CCC3CC3)c3ccccn3)c2)c1 (stereo unspecified) |  |  |  | 104 | 18.5 |  |  | 
11 | NCc1cccc(-n2nc(C(F)(F)F)cc2C(=O)Nc2cccc(C(NCC3CC3)c3ccccc3)c2)c1 (stereo unspecified) |  |  |  | 19.3 | 5.4 |  |  | 
12 | NCc1cccc(-n2nc(C(F)(F)F)cc2C(=O)Nc2cccc(C(O)(CCC3CC3)c3cccnc3)c2)c1 (stereo in doubt; 18) |  | 128 | 51 | 9 | 1.9 |  |  | 
13 | NCc1cccc(-n2nc(C(F)(F)F)cc2C(=O)Nc2cccc(C(O)(CCC3CC3)c3ccncc3)c2)c1 (stereo in doubt; 24) |  |  |  | 178 | 59 |  |  | 
14 | NCc1cccc(-n2nc(C(F)(F)F)cc2C(=O)Nc2cc(C(O)(CCC3CC3)c3cccnc3)ccc2F)c1 (stereo in doubt; 21) |  |  |  |  |  | 9 | 887 | 224

More lines, now with the values ahead:

Row | concentration at 24 h [1] [ng/mL] | AUC(0-t) at 24 h [2] [ng·h/mL] | Cmax ([3]; Sprague-Dawley, read-out: Cmax) [ng/mL] | IC50 (Plasma kallikrein [4]) [nM] | IC50 (Plasma kallikrein [5]) [nM] | Cmin ([1]; po, 10 mg/kg, 24 h) [ng/mL] | AUC ([2]; 24 h) [ng·h/mL] | Cmax [3] [ng/mL] | SMILES
15 | 9.4 | 306 | 17 | 6 | 1.3 |  |  |  | NCc1cccc(-n2nc(C(F)(F)F)cc2C(=O)Nc2cc(C(N)(CCC3CC3)c3cccc(C(N)=O)c3)ccc2F)c1 (stereo unspecified)
16 |  | 134 | 27 | 1.7 | 2.3 |  |  |  | NCc1cccc(-n2nc(C(F)(F)F)cc2C(=O)Nc2cc(C(N)(CCC3CC3)c3ccc(C(N)=O)nc3)ccc2F)c1 (single isomer, unassigned; (+))
17 | 9.62 | 888 | 190 |  |  |  |  |  | NCc1cccc(-n2nc(C(F)(F)F)cc2C(=O)Nc2cc(C(N)(CCC3CC3)c3cccnc3)ccc2F)c1 (stereo in doubt; 31)
18 |  |  |  | 165 | 180 |  |  |  | NCc1cccc(-n2nc(C(F)(F)F)cc2C(=O)Nc2cc(C(O)(CCC3CC3)c3ccncc3)ccc2F)c1 (stereo in doubt; 26)
19 | 24.5 | 1560 | 390 | 3 | 1.2 |  |  |  | Cc1cc(C(N)(CCC2CC2)c2ccc(F)c(NC(=O)c3cc(C(F)(F)F)nn3-c3cccc(CN)c3)c2)ccn1 (stereo in doubt; 35)
20 |  |  |  | 76 | 118 |  |  |  | NCc1cccc(-n2nc(C(F)(F)F)cc2C(=O)Nc2cc(C(N)(CCC3CC3)c3ccncc3)ccc2F)c1 (stereo in doubt; 34)
21 |  |  |  | 3.8 | 0.9 |  |  |  | NCc1cccc(-n2nc(C(F)(F)F)cc2C(=O)Nc2cc(C(N)(CCC3CC3)c3ccc(C(N)=O)cc3)ccc2F)c1 (stereo unspecified)
22 | 40.1 | 2290 | 303 |  |  |  |  |  | N#Cc1ccc(C(N)(CCC2CC2)c2ccc(F)c(NC(=O)c3cc(C(F)(F)F)nn3-c3cccc(CN)c3)c2)cc1 (stereo in doubt; 41)
23 | 22.9 | 825 | 93 | 3 | 1.5 |  |  |  | NCc1cccc(-n2nc(C(F)(F)F)cc2C(=O)Nc2cc(C(N)(CCC3CC3)c3ccncc3)ccc2F)c1 (stereo in doubt; 33)
24 | 53.3 | 2890 | 676 | 12 | 2.9 |  |  |  | N#Cc1cccc(C(N)(CCC2CC2)c2ccc(F)c(NC(=O)c3cc(C(F)(F)F)nn3-c3cccc(CN)c3)c2)n1 (stereo unspecified)
25 |  |  |  | 382 | 234 |  |  |  | N#Cc1cccc(C(N)(CCC2CC2)c2ccc(F)c(NC(=O)c3cc(C(F)(F)F)nn3-c3cccc(CN)c3)c2)c1 (stereo in doubt; 38)
26 |  |  |  |  | 18.4 |  |  |  | Cc1cc(C(N)(CCC2CC2)c2ccc(F)c(NC(=O)c3cc(C(F)(F)F)nn3-c3cccc(CN)c3)c2)ccn1 (stereo in doubt; 36)
27 | 56.5 | 3330 | 429 | 3.2 | 1.3 |  |  |  | N#Cc1cccc(C(N)(CCC2CC2)c2ccc(F)c(NC(=O)c3cc(C(F)(F)F)nn3-c3cccc(CN)c3)c2)c1 (stereo in doubt; 37)
28 | 2 | 95 | 42 | 7.7 | 1.1 |  |  |  | NCc1cccc(-n2nc(C(F)(F)F)cc2C(=O)Nc2cc(C(O)(CCC3CC3)c3ccncc3)ccc2F)c1 (stereo in doubt; 25)
29 | 15.1 | 960 | 157 |  |  |  |  |  | NCc1cccc(-n2nc(C(F)(F)F)cc2C(=O)Nc2cc(C(N)(CCC3CC3)c3ccccn3)ccc2F)c1 (stereo in doubt; 29)
